Test: Franz cell penetration study through pig skin stratum corneum/epidermis membrane
Type: in vitro ADME
Conditions: for Cumulative penetration of spironolactone through stratum corneum/epidermis: formulation of Table 6a, receptor phosphate buffer pH 7.4
Experimental: The functionality of the formulation was tested by evaporating the anti-solvent ethyl acetate. […] This formulation was used for penetration testing. When applied to the skin, spironolactone is intended to penetrate through the statum corneum into epidermis/dermis and not through the skin.
In this set-up, dermis was removed from full thickness pig skin and the remaining membrane consisting of stratum corneum and epidermis was mounted in the cell. The receptor fluid was phosphate buffer at pH 7.4 and 32° C. An amount of the experimental formulation corresponding to 50 mg of product and 1.5 mg of active substance after evaporation was applied. […] The experiment was performed at 34° C. and analysis of spironolactone was performed by HPLC.

[1] = after 6 hours, 1.5 mg of active substance applied

amount of spironolactone passed the skin membrane [1]: 0.5 mg | spironolactone passed the skin membrane, % of the dose [1]: 33% | Cumulative penetration of spironolactone through stratum corneum/epidermis (time 0 h): 0 μg/cm^2 | Cumulative penetration of spironolactone through stratum corneum/epidermis (time 2 h): 281 μg/cm^2 | Cumulative penetration of spironolactone through stratum corneum/epidermis (time 4 h): 381 μg/cm^2 | Cumulative penetration of spironolactone through stratum corneum/epidermis (time 6 h): 440 μg/cm^2 | Cumulative penetration of spironolactone through stratum corneum/epidermis (time 24 h): 466 μg/cm^2
SMILES: CC(=O)S[C@@H]1CC2=CC(=O)CC[C@]2(C)[C@H]2CC[C@@]3(C)[C@@H](CC[C@@]34CCC(=O)O4)[C@H]12 [Spironolactone]
